In patent publication US20080311122A1, “Antagonists of Hmgb1 and/or Rage and Methods of Use Thereof” (Medimmune, LLC, priority 2005, published 2008):
Entries after “also recorded” stand apart in the source; their conditions may differ.

What was measured:
pDCs = test: Stimulation of pDCs isolated from bone marrow, cytokine ELISA; assay type: cell-based, mouse; conditions: 24 hr
Description: Mice and Bone Marrow Cells: C57BL/6 mice were obtained from The Jackson Laboratories and maintained in specific pathogen-free conditions in conventional animal facilities at MedImmune, Inc. TLR9 deficient and MyD88 deficient mice and their litter mate controls were maintained in animal facility of University of Massachusetts Medical School. RAGE deficient mice generated were obtained from Heidelburg Germany and maintained at the University of Massachusetts Medical School. Fresh bone marrow cells were collected and pDCs were isolated from bone marrow cells using miltenyibiotec's plasmacytoid dendritic cell isolation kit. pDCs were re-suspended in Opti-MEM (Invitrogen) and stimulated […] cell/well for 24 hr and cytokine level in the supernatant was measured by ELISA.

CpG A DNA = test: Tryptophan emission for CpG-A binding to HMGB1; conditions: intrinsic tryptophan fluorescence; read-out: apparent Kd for CpG A DNA
Description: Tryptophan emission for CpG-A binding to HMGB1: Fluorescence titrations and spectra of HMGB-1 were carried out at 25° C. with a SPEX Fluoromax-3 spectrofluorimeter, monitoring the HMGB-1 intrinsic tryptophan emission at 347 nm (8 nm bandwidth) with 280 nm excitation (3 nm bandwidth) in a masked capped dual-pathlength (0.2×1.0 cm) quartz cell (Hellma Cells, Inc., Jamaica, N.Y.) upon stepwise addition of CpG-A (0.5 mM) to a 1.7 μM solution of HMGB-1 in 1:10 Dulbecco Phosphate Buffered Saline (PBS) solution (Invitrogen, Carlsbad, Calif.). Complex formation between HMGB-1 and the nucleic acid was monitored by the change in the initial fluorescence of the protein. HMGB-1 fractional saturation was inferred from the ratio of observed fluorescence change to maximal change (at saturation), Flim, for each of the nucleic acid additions. Binding affinity was calculated from graphs of relative fluorescence intensity versus [nucleic acid base]/[protein].The occluded binding site size (n) was derived from the intersection of the extrapolated initial slope with the limiting fluorescence plateau in the equilibrium binding isotherms. The measurements for assessment of Tryptophan emission are reviewed in detail in Lakowicz, 2000, Photochem. Photobiol. 72, 421-437.

mouse macrophages = test: TNF-a induction in mouse macrophages; assay type: cell-based
Description: TNF-a Induction: To examine mRNA levels macrophages were derived from mouse bone marrow using M-CSF. Macrophages were then stimulated by LPS, E. coli produced recombinant HMGB1 or HMGB1 purified from bovine thymus for indicated length of time and mRNA is measured by Taqman. To examine protein levels thioglycant activated mouse peritoneal macrophages were stimulated with 10 μg/mL of HMGB1 purified from bovine thymus or recombinant HMGB1 generated from E. coli for 24 hr. Cytokines in the supernatant were measured by ELISA.

[1] = system: native activated HMG1 stimulated IL-6 release from human PBMCs; test: Inhibition of cytokine release from PBMCs, native activated HMG1; assay type: cell-based
Description: Inhibition of Cytokine Release: Human peripheral blood mononuclear cells (PBMCs) were isolated from the peripheral blood of healthy volunteers by a density gradient centrifugation. Freshly drawn heparinized whole blood was mixed with two volume of PBS. The diluted blood was gently layered on the surface of Histopaque-1077 (Sigma-Aldrich) and centrifuged at 400×g, at RT for 30 minute. PBMCs were collected from the interface between the plasma and the density gradient solution. After washing in PBS 3×, the purified PBMCs were resuspended in RPMI-1640 medium (GIBCO BRL) containing 100 U/ml penicillin, 100 μg/ml streptomycin and […] β-mercaptoethanol. 1×10^5 of cells was added in each well of 96-well cell culture plates. […]
The culture media were analyzed for inflammatory cytokines using Beadlyte human multi-cytokine flex kit from Upstate by Luminex 100 (Luminex Corp.). Proinflammatory cytokines TNF-α, IL-6, IL-1β and IL-12 (p40) were measured for cells stimulated with recombinant HMG1. In addition, TNF-α, IL-6, IL-1β and IL-8 were measured for cells stimulated with native activated HMG1.
Cytokine release data is presented as mean of triplicates±standard deviations. […] It was calculated by PRISM program.

[2] = system: lupus plasma induced IFIT1 mRNA in human PBMCs; test: IFIT1 mRNA induction in PBMCs by lupus plasma; assay type: cell-based; conditions: 20% lupus plasma
Description: Human Cell Culture and Isolation: Fresh PBMCs from healthy donors were prepared by Ficoll-hypaque fractionation and cultured at a density of 2×10^5Cells/0.1 ml in 96-well flat-bottomed plates in culture medium. 20% of lupus plasma was incubated with PBMC for 24 hrs. Some wells included antibodies anti-HMGB1, RAGE Fc or human IgG together with lupus plasma. After 24 hrs, PBMCs were collected and lysed. Total RNA was purified using the 96-well Total RNA Purification Kit (Gentra, Minneapolis, Minn.). 11 μl of this RNA was reverse-transcribed to cDNA in a 20 μl reaction using SuperScript III RNase H-Reverse Transcriptase (Invitrogen, Carlsbad, Calif.). cDNA obtained from each sample was diluted 1:[…] was amplified in a 25 μl real-time PCR reaction using 0.4 μM of sense and antisense primers and the 2×iQ SYBR Green Supermix (Bio-Rad, Hercules, Calif.). GAPDH was used as a housekeeping gene control. Primer sequences for IFIG and GAPDH were: IFIT1 forward, 5′-[…]-3′ (SEQ ID NO: 111); IFIT1 reverse, 5′-AGTCAGCAGCCAGTCTCAG-3′ (SEQ ID NO: 112); GAPDH forward, 5′-CAACGGATTTGGTCGTATT-3′ (SEQ ID NO: 113); GAPDH reverse, 5′-[…]-3′ (SEQ ID NO: 114).

[3] = system: CpG2216+thymus HMG1 induced IFN-a release (TLR9 signaling); test: Inhibition of HMG1 mediated enhancement of TLR9 signaling, CpG2216 + thymus HMG1 in bone marrow cells; assay type: cell-based; conditions: mouse bone marrow cells
Description: HMGB1+TLR Ligand: Freshly isolated bone marrow cells were stimulated with TLR ligands (TLR3:PolyIC@5 μg/mL; TLR4:LPS@2.5 ng/mL; TLR5:flagellin@0.25 μg/mL; TLR7:polyU@4 μg/mL or R837@5 μg/mL; TLR9:CpG2216@1 μM) with or without presence of thymus HMGB1 (10 μg/mL) for 24 hr. Cytokines in the supernatant were measured by ELISA.
Inhibition of HMG1 Mediated Enhancement of TLR Signaling: Freshly isolated bone marrow cells were stimulated with TLR9 ligand CpG2216 (0.3 μM) and thymus HMGB1 (10 μg/mL) in the presence of different concentration of the anti-HMGB1 mAb E11 or control human IgG for 24 hr and IFN-a in the supernatant was measured by ELISA. CpG2216, HMGB1 and nonstimulatory DNA were used alone or in combination as controls for the assay.

[4] = system: LPS+HMG1 induced TNF-a release (TLR4 signaling); test: Inhibition of HMG1 mediated enhancement of TLR4 signaling, LPS+HMG1 TNF-a release; assay type: cell-based, mouse
AM14 B cells [5] = test: AM14 proliferation assay; assay type: cell-based, mouse
Description: AM14 proliferation assay: Purified AM14 B cells were preincubated with RAGE-Fc or control human IgG1 for 30 min at 37° C., and stimulated with 0.1 μg/ml of PL2-3 for 24 h at 37° C. Cells were then pulsed with [^3H]thymidine for 6 h.

AM14 B cells [6] = test: DNA immune complex and AM14 cell binding assay; assay type: cell-based, mouse
Description: DNA immune complex and AM14 cell binding assay DNA immune complexes were preformed by mixing spent culture supernatants with 15 μg/ml of PL2-3 (anti-nucleosome IgG2a). AM14 FcγRIIB−/− cells were incubated with a mixture of spent culture supernatants (CML sup.) and 15 μg/ml of PL2-3 (anti-nucleosome IgG2a) on ice. To analyze the effect of RAGE-Fc on the ability of the complexes to bind AM14 B cells, RAGE-Fc (or Fc control) was added to the immune complexes for an additional 2 h on ice. The chromatin immune complexes, or antibody alone, were added to 0.5×10^6 splenic purified AM14 FcγRIIB−/− B. HMGB1 in complexes was detected using an anti-HMGB1-Biotinylated antibody (MedImmune, Inc.) and PL2-3 was detected by an anti-IgG2a-FITC.

With 5′-GGGGGACGATCGTCGGGGGG-3′ [CpG DNA] the IFN-α production (pDCs) was 32 ± 5 pg/mL and the TNF-α production (pDCs) was 43 ± 5 pg/mL.
In the case of “HMGB1: HMGB1 purified from bovine thymus”, the Kd (CpG A DNA) is reported as 70 nM, the “induction of TNF-a mRNA levels” value (mouse macrophages; 2 hours, listed as native HMG1) is reported as about 30 fold and the “induction of TNF-a mRNA levels” value (mouse macrophages; 2 hours, listed as thymus HMG1) is reported as “roughly 30 fold”. The “induction of TNF-a mRNA levels” value (mouse macrophages; 8 hour) was about 15 fold, the “increase in TNF-a protein levels” value (mouse macrophages; 24 hours, supernatant) was “no induction” and the IFN-α production (pDCs) was “ineffective”.
“RAGE-Fc: RAGE-Fc fusion protein (soluble RAGE), RAGE antagonist” was tested, and the “block of IL-6 release induced by native activated HMG1” value [1] was “able to block IL-6 released induced by native activated HMG1”, the “inhibition of induction of IFIT1 mRNA by lupus plasma” value [2] was “approx 75%” and the “inhibition of IFN-a release induced by CpG + thymus HMG1” value (“inhibition … by CpG + thymus HMG1” below) [3] was “inhibit IFN-a release”. The “inhibition … by CpG + thymus HMG1” value ([3]; listed as RAGE/Fc) was “significantly blocked CpG/HMGB1 complex induced IFN-α”, the “inhibition of IFN-a release induced by CpG alone” value ([3]; listed as RAGE/Fc) was “did not block CpG-A induced IFN-α production” and the “inhibition … by CpG + thymus HMG1” value ([3]; listed as Rage/Fc) was “to a less extent; also recorded: inhibited the release of INF-a induced by CpG2216+thymus HMG1”. For the same substance, the “inhibition of IFN-a release induced by CpG alone” value ([3]; listed as Rage/Fc) was “Neither E11, G4 or Rage/Fc inhibited”, the “inhibition of TNF-a release induced by LPS+HMG1” value [4] was “inhibits the release of TNF-a induced by LPS+HMG1; also recorded: could be blocked; also recorded: inhibit the release of TNFa induced by LPS+HMG1” and the “effect on TLR2, TLR4 ligand induced proliferation or BCR mediated B cell activation” value (AM14 B cells [5]) was “had no effect”. For the same substance, the “inhibition of DNA immune complex (PL2-3) dependent proliferation of AM14 B cells” value (AM14 B cells [5]; thymidine incorporation) was “reduced proliferation; also recorded: markedly inhibited PL2-3-dependent proliferation of AM14 B cells” and the “inhibition of binding of chromatin/DNA immune complexes to AM14 B cells” value (AM14 B cells [6]) was “blocks binding of chromatin IC to AM14 B cells; also recorded: inhibited binding of HMGB1-containing DNA immune complexes to the surface of B cells”.
With “lipopolysaccharide [LPS, reference compound]” the “induction of TNF-a mRNA levels” value (mouse macrophages; 2 hours) was about 66 fold and the “induction of TNF-a mRNA levels” value (mouse macrophages; 8 hour) was about 7 fold.
